Where no end group is shown, it is not given here.
Columns and labels:
M07E = M07E starved 30 hours in 1% fetal calf serum; 20 µg/ml peptide
Description: (§1) The hematopoietic, growth factor dependent cell lines, M07E and TF-1 (Mijajima, CDNAX Research Institute, Palo Alto, California), were starved for 30 hours in DMEM containing 1% fetal calf serum (Hyclone, Logan, Utah) in the presence or absence of 20 µg/ml of the 20mer peptide (SEQ. ID NO. 6). Cell viability was measured by one of two methods, trypan blue exclusion or ^3H-thymidine incorporation (Alai et al., J. Biol. Chem. 267:18021-18025, 1992).

TF-1 = TF-1 starved 30 hours in 1% fetal calf serum; 20 µg/ml peptide
Description: as §1

SVDVEYTQFTDFRGKLTKLL [Peptide 20mer]
TRYPAN BLUE COUNTS (% VIABILITY) (M07E): 20 ± 0.5%
TRYPAN BLUE COUNTS (% VIABILITY) (TF-1): 29 ± 1%
